Results: the NIST ThermoML archive (doi:10.1021/je800999s)
± gives the expanded uncertainty stated by the source.

Assay: molar heat capacity at constant pressure
Conditions: 101 kPa, Liquid, Large sample (1 g) DSC

Compound | molar heat capacity at constant pressure (303.15 K) | molar heat capacity at constant pressure (308.15 K) | molar heat capacity at constant pressure (313.15 K) | molar heat capacity at constant pressure (318.15 K) | molar heat capacity at constant pressure (323.15 K) | molar heat capacity at constant pressure (328.15 K) | molar heat capacity at constant pressure (333.15 K) | molar heat capacity at constant pressure (338.15 K) | molar heat capacity at constant pressure (343.15 K) | molar heat capacity at constant pressure (348.15 K) | molar heat capacity at constant pressure (353.15 K)
O=CN1CCOCC1 [N-formylmorpholine] | 185 ± 8 J/K/mol | 186 ± 8 J/K/mol | 188 ± 8 J/K/mol | 189 ± 8 J/K/mol | 191 ± 8 J/K/mol | 193 ± 8 J/K/mol | 195 ± 8 J/K/mol | 197 ± 8 J/K/mol | 200 ± 9 J/K/mol | 201 ± 9 J/K/mol | 202 ± 9 J/K/mol
COCCOCCOCCOC [2,5,8,11-tetraoxadodecane] | 359 ± 15 J/K/mol | 364 ± 15 J/K/mol | 366 ± 16 J/K/mol | 368 ± 16 J/K/mol | 370 ± 16 J/K/mol | 371 ± 16 J/K/mol | 373 ± 16 J/K/mol | 375 ± 16 J/K/mol | 379 ± 16 J/K/mol | 381 ± 16 J/K/mol | 382 ± 16 J/K/mol
O=S1(=O)CCCC1 [sulfolane] | 182 ± 8 J/K/mol | 184 ± 8 J/K/mol | 185 ± 8 J/K/mol | 186 ± 8 J/K/mol | 188 ± 8 J/K/mol | 189 ± 8 J/K/mol | 191 ± 8 J/K/mol | 193 ± 8 J/K/mol | 194 ± 8 J/K/mol | 197 ± 8 J/K/mol | 199 ± 8 J/K/mol
CN1CCCC1=O [N-methylpyrrolidone] | 166 ± 7 J/K/mol | 167 ± 7 J/K/mol | 168 ± 7 J/K/mol | 169 ± 7 J/K/mol | 170 ± 7 J/K/mol | 172 ± 7 J/K/mol | 174 ± 7 J/K/mol | 175 ± 7 J/K/mol | 176 ± 7 J/K/mol | 177 ± 8 J/K/mol | 178 ± 8 J/K/mol
